Experimental data published in patent publication US8742123B2, “HIV integrase inhibitors from pyridoxine” (TaiMed Biologics, Inc., priority 2008, dated 2014).

Test system: wild type NL-4.3
Test: multi-cycle infection assay in MT-4 cells (MTT cytoprotection)
Assay type: cell-based, HIV-1
Details: Human immunodeficiency virus 1, MT4, 144 h; MT-4 cells, wild type NL-4.3, 6 days, MTT; read-out: EC50 (nM) multi-cycle
Method: The antiviral efficacies of the integrase inhibitor compounds of the invention were evaluated based on EC50 measures obtained from two different in vitro HIV infection assay using cultured MT-4 cells: (1) a multi-cycle infection where cells were infected with wild type NL-4.3) and (2) a single-cycle infection where the cells were infected with a luciferase-bearing, envelope defective (env-) NL-4.3 virus pseudotyped with HIV-1 env (HXBc2.
The incubation period for the multi-cycle infection assay was 6 days. Cell viability (cytoprotection) and EC50 were determined using the colorimetric MTT assay (A. J. Japour et al, Antimicrobial Agents and Chemotherapy, 37, 1095-1101, 1993 and R. Pauwels et al. Journal of Virological Methods, 20, 309-321, 1988).

Point of comparison: `O=C(NCc1cc(F)cc(F)c1)c1cnc(C(=O)NOCc2ccccc2)c(OCc2ccccc2)c1CO` [Example 7, N^2,3-bis(benzyloxy)-N^5-(3,5-difluorobenzyl)-4-(hydroxymethyl)pyridine-2,5-dicarboxamide], EC50 1500 nM. Against it:
- O=C(Nc1cnc(C(=O)NO)c(O)c1CO)c1ccc(F)cc1 [Example 23, 5-(4-Fluoro-benzoylamino)-3-hydroxy-4-hydroxymethyl-pyridine-2-carboxylic Acid Hydroxyamide] — 4.2-fold higher, 6300 nM
- O=C(NO)c1ncc(CNc2ccc(F)cc2)c(CO)c1O [Example 21, 5-[(4-Fluoro-phenylamino)-methyl]-3-hydroxy-4-hydroxymethyl-pyridine-2-carboxylic Acid Hydroxyamide] — 350-fold lower, 4.3 nM
- O=C(NO)c1ncc(CN(Cc2ccccc2)c2ccc(F)cc2)c(CO)c1O [Example 25, 5-{[Benzyl-(4-fluoro-phenyl)-amino]-methyl}-3-hydroxy-4-hydroxymethyl-pyridine-2-carboxylic Acid Hydroxyamide] — 8.6-fold lower, 175 nM
- O=C(NO)c1ncc(CS(=O)(=O)Cc2ccc(F)cc2)c(CO)c1O [Example 71, 5-(4-Fluoro-phenylmethanesulfonylmethyl)-3-hydroxy-4-hydroxymethyl-pyridine-2-carboxylic Acid Hydroxyamide] — 350-fold lower, 4.3 nM
- COC(=O)N(Cc1ccc(F)cc1)Cc1cnc(C(=O)NO)c(O)c1CO [Example 65, (4-Fluoro-benzyl)-(5-hydroxy-6-hydroxycarbamoyl-4-hydroxymethyl-pyridin-3-ylmethyl)-carbamic Acid Methyl Ester] — higher, > 10000 nM
- O=C(NO)c1ncc(CNCc2ccc(F)cc2)c(CO)c1O [Example 9] — 1.5-fold lower, 1000 nM
- O=C(NO)c1ncc(CCc2ccc(F)cc2)c(CO)c1O [Example 67, 5-[2-(4-Fluoro-phenyl)-ethyl]-3-hydroxy-4-hydroxymethyl-pyridine-2-carboxylic Acid Hydroxyamide] — 6.4-fold lower, 235 nM
- O=C(NCc1ccc(Cl)c(Cl)c1)c1cnc(C(=O)NO)c(O)c1CO [Example 16, N^5-(3,4-dichlorobenzyl)-N^2,3-dihydroxy-4-(hydroxymethyl)pyridine-2,5-dicarboxamide] — 2.1-fold lower, 700 nM
- COc1ccc(COCc2cnc(C(=O)NO)c(O)c2CO)cc1 [Example 17, N,3-Dihydroxy-4-(hydroxymethyl)-5-((4-methoxybenzyloxy)methyl)-picolinamide] — within 1.5-fold, 2000 nM
- O=C(NCc1ccc(F)c(Cl)c1)c1cnc(C(=O)NOCc2ccccc2)c(OCc2ccccc2)c1CO [Example 13, N^2,3-bis(benzyloxy)-N^5-(3-chloro-4-fluorobenzyl)-4-(hydroxymethyl)pyridine-2,5-dicarboxamide] — higher, > 10000 nM
- O=C(NO)c1ncc(CNCc2cc(F)cc(F)c2)c(CO)c1O [Example 10, 5-((3,5-difluorobenzylamino)methyl)-N,3-dihydroxy-4-(hydroxymethyl)picolinamide] — higher, > 10000 nM
- O=C(NCc1cc(F)cc(F)c1)c1cnc(C(=O)NO)c(O)c1CO [Example 8, N^5-(3,5-difluorobenzyl)-N^2,3-dihydroxy-4-(hydroxymethyl)pyridine-2,5-dicarboxamide] — higher, > 10000 nM
- COc1ccc(CNC(=O)c2cnc(C(=O)NOCc3ccccc3)c(OCc3ccccc3)c2CO)cc1 [Example 5, N^2,3-bis(benzyloxy)-4-(hydroxymethyl)-N^5-(4-methoxybenzyl)pyridine-2,5-dicarboxamide] — 1.7-fold lower, 900 nM
- O=C(NCc1ccc2c(c1)OCO2)c1cnc(C(=O)NO)c(O)c1CO [Example 4, N^5-(benzo[d][1,3]dioxol-5-ylmethyl)-N2,3-dihydroxy-4-(hydroxymethyl)pyridine-2,5-dicarboxamide] — higher, > 10000 nM
- COc1ccc(CNC(=O)c2cnc(C(=O)NO)c(O)c2CO)cc1 [Example 6, N^2,3-dihydroxy-4-(hydroxymethyl)-N^5-(4-methoxybenzyl)pyridine-2,5-dicarboxamide] — 1.5-fold lower, 1000 nM
- Cc1c(C(=O)NCc2ccc(F)c(Cl)c2)cnc(C(=O)NO)c1O [Example 74, 3-Hydroxy-4-methyl-pyridine-2,5-dicarboxylic Acid 5-(3-chloro-4-fluoro-benzylamide)2-hydroxyamide] — 5.6-fold lower, 267 nM
- O=C(NO)c1ncc(CNCc2ccc3c(c2)OCO3)c(CO)c1O [Example 11, 5-((benzo[d][1,3]dioxol-5-ylmethylamino)methyl)-N,3-dihydroxy-4-(hydroxymethyl)picolinamide] — 5-fold lower, 300 nM
- COc1ccc(COCc2cnc(C(=O)NO)c3c2COC(C)(C)O3)cc1 [Example 19, N-hydroxy-5-((4-methoxybenzyloxy)methyl)-2,2-dimethyl-4H-[1,3]dioxino[4,5-c]pyridine-8-carboxamide] — 3.4-fold higher, 5060 nM
- COCc1c(C(=O)N(C)Cc2ccc(F)cc2)cnc(C(=O)NO)c1O [Example 12, N^5-(4-fluorobenzyl)-N2,3-dihydroxy-4-(methoxymethyl)-N^5-methylpyridine-2,5-dicarboxamide] — 9.3-fold higher, 14000 nM
- O=C(NCc1ccc(F)c(F)c1)c1cnc(C(=O)NO)c(O)c1CO [Example 20, N^5-(3,4-difluorobenzyl)-N^2,3-dihydroxy-4-(hydroxymethyl)pyridine-2,5-dicarboxamide] — 50-fold lower, 30 nM
- O=C(NO)c1ncc(COc2ccc(F)cc2)c(CO)c1O [Example 28, 5-(4-Fluoro-phenoxymethyl)-3-hydroxy-4-hydroxymethyl-pyridine-2-carboxylic Acid Hydroxyamide] — 8.1-fold lower, 186 nM
- O=C(NCc1ccc(Cl)c(Cl)c1)c1cnc(C(=O)NOCc2ccccc2)c(OCc2ccccc2)c1CO [Example 15, N^2,3-bis(benzyloxy)-N^5-(3,4-dichlorobenzyl)-4-(hydroxymethyl)pyridine-2,5-dicarboxamide] — higher, > 10000 nM
- O=C(Nc1ccc(F)cc1)Nc1cnc(C(=O)NO)c(O)c1CO [Example 27, 5-[3-(4-Fluoro-phenyl)-ureido]-3-hydroxy-4-hydroxymethyl-pyridine-2-carboxylic Acid Hydroxyamide] — within 1.5-fold, 1100 nM
